Data on 1 molecule can be found in patent publication US10350170B2, “Solid preparation” (Takeda Pharmaceutical Company Limited, priority 2015, dated 2019).

The nature of the data set: Stability of compound A alone in a solid state to temperature, humidity. Type of data set: physicochemical.

Regarding `CONC(=O)Nc1ccc(-c2sc3c(c2CN(C)C)c(=O)n(-c2ccc(OC)nn2)c(=O)n3Cc2c(F)cccc2F)cc1` [compound A, N-(4-(1-(2,6-difluorobenzyl)-5-((dimethylamino)methyl)-3-(6-methoxy-3-pyridazinyl)-2,4-dioxo-1,2,3,4-tetrahydrothieno[2,3-d]pyrimidin-6-yl)phenyl)-N′-methoxyurea], the “stability to temperature, humidity and the like” value is “stable”.
